In patent US20130267544A1, “Use of LP-PLA2 Inhibitors in the Treatment and Prevention of Eye Diseases” (priority 2010, published 2013):
Entries after “also recorded” stand apart in the source; their conditions may differ.

How the values were obtained:
[1] = tested on: STZ-induced diabetic SD rats; conditions: first study, 10 mg/kg/d i.p. from day 4
Procedure: Male SD rats, 6 weeks of age and weighing 180-200 g, were used in this study; the rats had free access to food and water and were maintained in cages in an environmentally controlled room with a 12 hour light-dark cycle. Diabetes was induced by following dosing of animals with streptozotocin (50 mg/kg/day dosed i.p. for each of the first 3 days of the protocol) in 10 mM sodium citrate-buffer pH 4.6. […] Animals which maintained an elevated blood glucose level of over 9 mM were deemed diabetic.
The retinal images were scanned by a commercially available Fourier-domain OCT (RTVue-100; version 2.1; Optovue, Inc., California, USA). Super-luminescent diode light source with a central wavelength of 840 nm and a full bandwidth of 50 nm was adapted to the OCT. The retinal thickness was accessed by the automatic software of RTVue scanner with manual adjusting. The retinal thickness was defined from layer of retinal pigment eitheluim (RPE) to retinal ganglion cell layer (GCL).
Two separate studies were conducted. Retinal images were taken on experimental day 4, 10, 13, 17, 22, 28 and 31 for the second study and day 0, 4, 7, 10, 14 and 18 for the first study. Animals were anesthetized by inhalation of 5% isoflourane and pupils were diluted with 1% tropicamide and 1% phenylephrine. Prior to OCT analysis animals were fixed on a support frame and the eye to be imaged positioned to align with the center of the scan beam perpendicular to the fundus. […] After imaging, the animals were recovered and returned to cages. Retinal thickness from six time points of OCT measurement were analyzed by repeated measures analysis of variance (ANOVA) using Prism software. […] All data were expressed as mean value±SEM.

Lp-PLA2 = Lp-PLA2 (Oryctolagus cuniculus, UniProt G1SE06); conditions: rabbits on cholesterol/copper diet, 10 mg/kg daily s.c. from day 1-72
Chain of Lp-PLA2 (G1SE06 22-423): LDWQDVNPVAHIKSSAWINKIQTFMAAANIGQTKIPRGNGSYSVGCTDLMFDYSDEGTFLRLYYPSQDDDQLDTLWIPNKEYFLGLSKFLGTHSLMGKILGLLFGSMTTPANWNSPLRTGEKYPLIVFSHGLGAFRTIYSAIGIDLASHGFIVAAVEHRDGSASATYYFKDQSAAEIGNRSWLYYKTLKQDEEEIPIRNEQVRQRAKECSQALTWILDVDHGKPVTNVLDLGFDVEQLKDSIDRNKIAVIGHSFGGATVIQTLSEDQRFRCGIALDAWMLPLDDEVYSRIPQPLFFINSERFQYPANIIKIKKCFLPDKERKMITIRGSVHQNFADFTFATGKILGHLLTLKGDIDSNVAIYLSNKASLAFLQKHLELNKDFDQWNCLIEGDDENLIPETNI
Procedure: 3-4 month SPF male New Zealand White rabbits were purchased from Covance (Denver, Pa.), individually housed and had ad libitum access to rabbit chow and water on a 12/12 h light/dark cycle. Experiments were repeated twice with animals arriving 3 weeks apart. Rabbits were randomly assigned to five treatment groups with a sample size of 8 animals per group. 32 Rabbits were placed on cholesterol/copper diet and 8 rabbits fed normal chow. Cholesterol/copper diet consisted of 160 g per day of commercially produced diet (Purina Mills High Fibre Diet) supplemented or not with 2% cholesterol. Copper sulphate (0.12 mg/l) was added to drinking water of rabbits assigned the cholesterol supplemented diet.
Animals were weighed and drug or vehicle administration delivered at 3 ml/kg to affect a 10 mg/kg dose by subcutaneous injection in the neck fold.
Six groups of animals consisting of 8 animals were assigned to the following treatment groups. Groups 1-5 were maintained on the cholesterol supplemented diet with copper sulphate in the drinking water.
Lp-PLA2 activity was measured in plasma samples collected at days 1, 29, 32 and 72 using proprietary GSK techniques.

rat Lp-PLA2 enzyme = conditions: compared with Lp-PLA2 inhibitor '495
DM/HC pigs = test: Behavioural observation of DM/HC pigs; format: in vivo, pig; conditions: 10 mg/kg/day, vs DM/HC control animals
Procedure: Yorkshire domestic farm pigs (˜25-35 kg; Archer Farms) were induced for diabetes with a single intravenous injection of 125 mg/kg streptozotocin (Mohler et al., 2008). Blood glucose and cholesterol were closely monitored. Three days after diabetes induction, a hyperlipidemic diet was used to achieve hypercholesterolemia with serum cholesterol concentrations clamped between 400 and 800 mg/dl. Because pigs have a variable serum cholesterol response to a high cholesterol diet, cholesterol concentrations were checked every two months. One month after DMHC induction, pigs were randomly assigned into either a control group or a treatment group receiving 10 mg/kg/d orally of the selective Lp-PLA2 inhibitor Darapladib (GlaxoSmithKline). Pigs were sacrificed after 28 weeks after induction (that is, 24 weeks after initiation of treatment). At the time of completion of the study, there were 17 pigs in the control group and 20 in the Darapladib-treated group, as three pigs in the control group were excluded from analysis because of persistently elevated cholesterol levels. […] The specific experiment was published (Wilensky et al., 2008) but no vascular leak data was presented in that publication.

[2] = tested on: DMHC pigs (blood-brain barrier); test: IgG leak from brain blood vessels (BBB permeability) in diabetic/hypercholesterolemic pigs; format: in vivo, pig; conditions: 10 mg/kg/day orally for 24 weeks
Procedure: (§1) Yorkshire domestic farm pigs (˜25-35 kg; Archer Farms) were induced for diabetes with a single intravenous injection of 125 mg/kg streptozotocin (Mohler et al., 2008). Blood glucose and cholesterol were closely monitored. Three days after diabetes induction, a hyperlipidemic diet was used to achieve hypercholesterolemia with serum cholesterol concentrations clamped between 400 and 800 mg/dl. Because pigs have a variable serum cholesterol response to a high cholesterol diet, cholesterol concentrations were checked every two months. […]
(§2) Specimens from the brains of 29 pigs, included 3 untreated controls; 13 DMHC and 13 DMHC treated with Darapladib (Rx), were embedded in paraffin wax. Each brain specimen was serially sectioned, and the first section representing each sample was stained with Hematoxylin and Eosin (H+E) which permitted cortical from non-cortical regions based on differential staining to be determined. Full (large) face tissue blocks were used throughout this study in an effort to maximize the amount of tissue analyzed so as to favor subsequent quantification. The total areas (in sq. mm) of cortical and non-cortical brain tissue in each section were measured in H+E− stained sections using computer-assisted image analysis and Image Pro Plus software. […]

[3] = tested on: DMHC pigs (Abeta42 in cerebral cortex); test: Abeta42 amount and distribution in cerebral cortex of DMHC pig brain; format: in vivo; conditions: 10 mg/kg/day for 24 weeks
Procedure: as §1, §2

[4] = tested on: rat brain microvascular endothelial cells co-cultured with rat brain astrocytes; test: Transendothelial electrical resistance of BMEC monolayers; format: cell-based; conditions: after addition of lysoPC to endothelial monolayers
Procedure: (§3) Three-week-old Sprague-Dawley (SD) rats were sacrificed by cervical dislocation. After white matter, meninges and macroscopic pial vessels were removed, the gray matter was thoroughly triturated in ice-cold Dulbecco's modified Eagle's medium (DMEM). The tissue was then digested in DMEM (7 ml for 5 rat brains) containing collagenease II (1 mg/ml) and DNase I (39 U/ml) at 37° C. for 1 h with shaking speed of 130 rpm. The digested tissue was diluted with the same volume of DMEM and centrifuged at 1000 g for 8 min at 4° C. The cell pellet was re-suspended in a 20% bovine serum albumin (BSA)-DMEM solution and centrifuged at 1000 g for 20 min at 4° C. The microvessels obtained in the pellet were further digested with collagenase-dispase (1 mg/mL) and DNase I (39 U/ml) in DMEM (3 ml for 5 rat brains) for 0.5 h at 37° C. […] After 2 days of puromycin treatment, the culture medium was replaced with supplemented EBM®2 for another 2 days of maintenance before they were ready for construction of co-cultured model. […]
(§4) The astrocytes suspended in 10% FBS-DMEM were seeded on to Poly-L-lysine coated 24-well culture plate at passage between 1 and 4 at a density of 1.5×10^4/cm^2. […] Transendothelial electrical resistance (TEER) of the monolayers were determined everyday using Millicell-ERS (Millipore, Bedford, Mass.) and when the TEER >150 Ω·cm^2, the monolayer was ready for transport experiment. […]

[5] = tested on: rat brain microvascular endothelial cells co-cultured with rat brain astrocytes; test: Permeability of Lucifer yellow in BMEC-astrocyte co-cultures; format: cell-based; conditions: lysoPC 0.3-10 ug/mL added to apical side, 90 min
Procedure: as §3, §4

CCN1CCC(N(Cc2ccc(-c3ccc(Cl)cc3)cc2)C(=O)Cn2c(CCc3cccc(F)c3F)nc(=O)c3ccccc32)CC1.O=C(O)C(O)C(O)C(=O)O [Lp-PLA2 inhibitor '859, N-(1-ethylpiperidin-4-yl)-2-(2-(2-(2,3-difluorophenyl)-ethyl)-4-oxo-4H-quninazolin-1-yl)-N-(4′-chloro-biphenyl-4-ylmethyl)acetamide bitartrate]
STZ-induced retinal thinning (neuroretinal thickness by OCT) [1]: not statistically significantly different from vehicle only treated animals
plasma Lp-PLA2 activity (Lp-PLA2): significantly lower levels of Lp-PLA2 activity
potency as inhibitor of rat Lp-PLA2 enzyme, relative (rat Lp-PLA2 enzyme): significantly less potent inhibitor

CCN(CC)CCN(Cc1ccc(-c2ccc(C(F)(F)F)cc2)cc1)C(=O)Cn1c(SCc2ccc(F)cc2)nc(=O)c2c1CCC2 [Darapladib, N-[2-(diethylamino)ethyl]-2-[[(4-fluorophenyl)methyl]thio]-4,5,6,7-tetrahydro-4-oxo-N-[[4′-(trifluoromethyl)[1,1′-biphenyl]-4-yl]methyl]-1H-cyclopentapyrimidine-1-acetamide]
general wellness (activity and alertness) (DM/HC pigs): general wellness effect (increased activity and alertness)
density of arteriolar leaks in the cortex (number of leaking arterioles per sq mm) [2]: reduced somewhat
extent of vascular (BBB) leaks ([2]; 10 mg/kg/day): effective at reducing the extent of leaks in all vessel types; also recorded: highly efficacious effect in reducing the permeability of the BBB; also recorded: somewhat reduced
total amount of Abeta42 (Abeta42 load) in the cerebral cortex [3]: reduced amyloid deposition; also recorded: reduced the total amount of Abeta42
density of Abeta42-positive neurons in cerebral cortex ([3]; entire brain): reduction in the number (density) of Abeta42 peptide positive neurones; also recorded: levels comparable to controls

lysophosphatidylcholine [lysoPC]
transendothelial electrical resistance (TEER) [4]: reduction in the transendothelial electrical resistance
transport of Lucifer yellow across endothelial monolayer [5]: dose-dependent reduction in the transport of Lucifer yellow
